Laboratory results published in publication PMC6753678, “Fueling Open Innovation for Malaria Transmission-Blocking Drugs: Hundreds of Molecules Targeting Early Parasite Mosquito Stages” (Frontiers in Microbiology, 2019).
Like-named read-outs stand apart in the source and are kept apart here.

What was measured:
[1] = tested on: P. falciparum late stage (stages IV-V) gametocytes; parameters: method as in Almela et al 2016; conditions: ref Almela et al 2016, read-out: Pf GCT ATP IC50, cited from earlier work
HepG2 cells [2] = conditions: ref Almela et al 2016, cited from earlier work; for HepG2 cytoxicity (Pf GCT ATP screen): HepG2 value reported with Pf GCT ATP screen
[3] = tested on: P. falciparum late stage (stages IV-V) gametocytes; test: P. falciparum late stage gametocyte ATP depletion assay (Pf GC-ATP); conditions: 1: YES, 0: NO
HepG2 cells [4] = test: HepG2 cytotoxicity assay; conditions: HepG2 cytotoxicity unified across screens
Outline: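 Here viability after a 48 h compound incubation (37°C, humidified 5% CO2) is measured by fluorescence and expressed as percent inhibition, with doxorubicin at 50 μM and DMSO as the bounding controls.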

[5] = tested on: P. berghei ookinete development; conditions: primary screen at 1 μM
[6] = bounds (>) given as plain numbers
[7] = P. falciparum late stage gametocyte ATP assay
[8] = HepG2 data listed with Pf GCT ATP screen
[9] = P. falciparum late stage gametocyte ATP assay, TCAMS screen
[10] = >10-fold selectivity over cytotoxicity

Row | SMILES | IC50 ([1]; TCAMS library screen) | HepG2 cytoxicity (Pf GCT ATP screen) (HepG2 cells [2]) | Is compound selective in assay? Pf GC-ATP active? [3] | Unified cytotox (HepG2 cells [4]; [6]) | IC50 [1, 9] | Is compound selective in assay? Pf GC-ATP active? [3, 10] | Unified cytotox (HepG2 cells [4]; >25 set to 25.00) | other results
1 | Cl.N=c1n(Cc2ccc(Cl)cc2)c2ccccc2n1CC(O)c1ccc(Cl)c(Cl)c1 (stereo not shown) [TCMDC-123813] | 360 nM | 6.5 µM | 1 (1: YES) | 6.50 µM | – | – | – | –
2 | O=C(Nc1nc(-c2ccccn2)cc2ccccc12)c1cccc(Cl)c1 [TCMDC-123886] | 500 nM | >25 µM | 1 (1: YES) | – | – | – | – | –
3 | COc1ccc(C[C@H](N)C(=O)N[C@H]2[C@@H](O)[C@H](n3cnc4c(N(C)C)ncnc43)O[C@@H]2CO)cc1.Cl [TCMDC-123927] | 650 nM | 2.69 µM | 0 (0: NO) | 2.69 µM | – | – | – | –
4 | Cc1ccc(C)c(NC(=O)CC2C(=O)N(c3ccccc3)C(=S)N2Cc2ccco2)c1 (stereo not shown) [TCMDC-124000] | 1300 nM | >10 µM | 1 (1: YES) | – | – | – | – | –
5 | Cl.N=c1n(CCN2CCCCC2)c2ccccc2n1CC(O)c1ccc(Cl)c(Cl)c1 (stereo not shown) [TCMDC-124064] | 3270 nM | 5.2 µM | 0 (0: NO) | 5.20 µM | – | – | – | –
6 | CCCCCCCn1c(=N)n(CC(O)c2ccc(Cl)c(Cl)c2)c2ccccc21.Cl (stereo not shown) [TCMDC-124065] | 2020 nM | 6 µM | 0 (0: NO) | 6.00 µM | – | – | – | –
7 | CCCCOc1ccc(C(=O)C(CCC(CNC(C)(C)C)C(=O)c2ccc(OCCCC)cc2)CNC(C)(C)C)cc1.Cl (stereo not shown) [TCMDC-124120] | 300 nM | 3.1 µM | 1 (1: YES) | 3.10 µM | – | – | – | –
8 | CCCCCOc1ccc(C(O)C(CCC(CN2CCCCCC2)C(O)c2ccc(OCCCCC)cc2)CN2CCCCCC2)cc1.Cl (stereo not shown) [TCMDC-124174] | 1200 nM | 6.8 µM | 0 (0: NO) | 6.80 µM | – | – | – | –
9 | Oc1c(C(Nc2nc3ccccc3s2)c2ccc(OC(F)F)cc2)ccc2cccnc12 (stereo not shown) [TCMDC-124379] | 440 nM | 24.1 µM | 1 (1: YES) | 24.10 µM | – | – | – | –
10 | Cc1cc(Nc2ccncc2)n2nc(C)c(-c3ccc(Cl)cc3)c2n1 [TCMDC-124478] | 910 nM | >50 µM | 1 (1: YES) | – | – | – | – | –
11 | O=C(O)C(=O)O.Oc1c(CN2CCC(Cc3ccccc3)CC2)cc(Cl)c2cccnc12 [TCMDC-124594] | 600 nM | 9.6 µM | 1 (1: YES) | 9.60 µM | – | – | – | –
12 | Cc1ccc(-n2nc(-c3ccccc3)c3cc(C(=O)NCCN)sc32)cc1 [TCMDC-124776] | 1110 nM | 7.83 µM | 0 (0: NO) | 7.83 µM | – | – | – | –
13 | CCc1nn2c(Nc3ccncc3)cc(C)nc2c1-c1ccccc1 [TCMDC-124917] | – | – | 1 (1: YES) | – | – | – | – | IC50 [1, 7]: 1900 nM; HepG2 cytoxicity (HepG2 cells [2]; [8]): >25 µM
14 | Cc1cc(Nc2ccncc2)n2nc(C)c(-c3ccccc3Cl)c2n1 [TCMDC-124918] | – | – | 1 (1: YES) | – | – | – | – | IC50 [1, 7]: 1940 nM; HepG2 cytoxicity (HepG2 cells [2]; [8]): >25 µM
15 | Cc1nn(CC(C)C)c2sc(C(=O)N3CCN(S(=O)(=O)c4ccc(C#N)cc4)CC3)cc12 [TCMDC-125045] | – | – | 1 (1: YES) | – | – | – | – | IC50 [1, 7]: 2090 nM; HepG2 cytoxicity (HepG2 cells [2]; [8]): >25 µM
16 | COc1ccc(NC(=O)C2c3ccccc3C(=O)N(CC(C)C)C2c2cccs2)cc1OC (stereo not shown) [TCMDC-125289] | – | – | 1 (1: YES) | – | – | – | – | IC50 [1, 7]: 430 nM; HepG2 cytoxicity (HepG2 cells [2]; [8]): >25 µM
17 | COc1cccc(C(=O)NC(C=Cc2ccccc2)c2cc(Cl)c3cccnc3c2O)c1 (stereo not shown) [TCMDC-125550] | – | – | 1 (1: YES) | – | – | – | – | IC50 [1, 7]: 590 nM; HepG2 cytoxicity (HepG2 cells [2]; [8]): >25 µM
18 | CCN(CC)/C(=N\C(=N)NCCCCCCNC(=N)/N=C(\Nc1ccc(Cl)cc1)N(CC)CC)Nc1ccc(Cl)cc1 [TCMDC-131807] | – | – | 1 (1: YES) | – | – | – | – | IC50 [1, 7]: 370 nM; HepG2 cytoxicity (HepG2 cells [2]; [8]): >25 µM
19 | CCN(CC)/C(=N/C(=N)Nc1ccc(Cl)cc1)NCCCCCCCCN/C(=N\C(=N)Nc1ccc(Cl)cc1)N(CC)CC [TCMDC-131812] | – | – | 1 (1: YES) | – | – | – | – | IC50 [1, 7]: 1030 nM; HepG2 cytoxicity (HepG2 cells [2]; [8]): >25 µM
20 | CCN(CC)/C(=N/C(=N)NCc1ccc(Cl)cc1)NCCCCCCN/C(=N\C(=N)NCc1ccc(Cl)cc1)N(CC)CC [TCMDC-131817] | – | – | 1 (1: YES) | – | – | – | – | IC50 [1, 7]: 790 nM; HepG2 cytoxicity (HepG2 cells [2]; [8]): >25 µM
21 | CCOc1c(CCNCCCCNCCc2ccc3ccccc3c2OCC)ccc2ccccc12.CS(=O)(=O)O [TCMDC-137759] | – | – | – | – | 170 nM | 1 (1: YES) | – | HepG2 cytoxicity (HepG2 cells [2]; reported with the Pf GCT ATP screen): <1.56 µM
22 | Cl.N=C(N)NN=Cc1c2ccccc2c(Cl)c2cc(Cl)ccc12 [TCMDC-137903] | – | – | – | – | 2350 nM | 0 (0: NO) | 7.50 µM | % inhibition, Replicate A [5]: 53.67%; % inhibition, Replicate B [5]: 40.83%
23 | CN1CCC(N(Cc2ccc(-c3ccc(Cl)cc3)cc2)C(=O)Cn2c(CCc3cccc(F)c3F)cc(=O)c3ccccc32)CC1.O=C(O)C(O)C(O)C(=O)O [TCMDC-141357] | – | – | – | – | 3430 nM | 0 (0: NO) | 6.70 µM | % inhibition, Replicate A [5]: 22.22%; % inhibition, Replicate B [5]: 55.97%
24 | CCN(Cc1ccc(-c2ccc(C(F)(F)F)cc2)cc1)C(=O)Cn1c(SCc2cccc(F)c2F)cc(=O)c2cc(CN3CCCCC3)ccc21.Cl [TCMDC-141592] | – | – | – | – | 2340 nM | 0 (0: NO) | 4.20 µM | –
25 | CN(C)CCCNc1nccc(N(C)c2ccc(NC(=O)Nc3cc(C(F)(F)F)ccc3F)cc2)n1.O=C(O)C(F)(F)F [TCMDC-141633] | – | – | – | – | 1000 nM | 1 (1: YES) | 17.30 µM | –
26 | O=C(Nc1cccc(Oc2ccccc2)c1)N[C@H]1CCN(Cc2ccc(OCCCN3CCCCC3)cc2)C1 [TCMDC-141785] | – | – | – | – | 1130 nM | 0 (0: NO) | 3.52 µM | –
27 | Cc1ccc2nc(C)cc(N/N=C/c3ccc([N+](=O)[O-])cc3)c2c1 [TCMDC-142070] | – | – | – | – | 9410 nM | 0 (0: NO) | 0.19 µM | –
28 | COc1ccc2c(=NN=Cc3ccc(OC)c4ccccc34)cc(C)[nH]c2c1 [TCMDC-142218] | – | – | – | – | 770 nM | 1 (1: YES) | 7.86 µM | –
29 | Nc1cc(C=Cc2ccc([N+](=O)[O-])o2)nc2ccccc12 [TCMDC-142295] | – | – | – | – | 200 nM | 1 (1: YES) | 11.70 µM | –
30 | Nc1cc(/C=C/c2ccc([N+](=O)[O-])s2)nc2ccccc12 [TCMDC-142296] | – | – | – | – | 600 nM | 1 (1: YES) | 7.60 µM | –
